# From US11958876B2, “Carbacyclic phosphatidic acid compound” (OTSUKA CHEMICAL CO., LTD., priority 2019, dated 2024)
# Structures can show the parent of a compound that is named as a salt.
# Assay: Stability test of 2ccPA crystals with added 2ccPA-L or 2ccPA-P (thermo-hygrostat, HPLC purity)
# Format: physicochemical
# Details: 40° C., humidity 60%
# Procedure: 2ccPA-L of Example 2 or 2ccPA-P of Comparative Example 2 was added to 2ccPA, and a stability test was performed. • Control: 2ccPA crystal • Test substances: crystals obtained by adding 2ccPA-L or 2ccPA-P at each concentration to 2ccPA, followed by crystallization with methanol and acetone. (2) Execution Conditions
# In the stability test, a thermo-hygrostat (Yamato Scientific Co., Ltd., IW223) was used. The stability test was performed while maintaining a set temperature of 40° C. and a set humidity of 60%.
# The sample purity was confirmed in such a manner that about 10 mg of each sample was weighed every week and diluted with 2 mL of acetonitrile/water (volume ratio: 1/1), and the diluted solution was analyzed by high-performance liquid chromatography (Shimadzu LC20AD).
# The results are shown in Table 1 (Example 2) and Table 2 (Comparative Example 2). Tables 1 and 2 focus only on 2ccPA, and show the residual rate thereof with the initial content of 2ccPA as 100 mass %.
smiles,measurement,setting,value
CCCCC/C=C\C/C=C\CCCCCCCC(=O)OCC1COP(=O)(O)C1 (stereo not shown) [Example 2ccPA-L],Effect on purity of 2ccPA on storage (in words),"2ccPA-L coexisting with 2ccPA, storage 1 or 2 weeks",hardly reduced
"CCCCCCCC/C=C\CCCCCCCC(=O)OCC1COP(=O)(O)C1 (stereo not shown) [Example 2ccPA, sodium salt of 9-octadecenoic acid (9Z)-(2-hydroxy-2-oxo-2λ^5-1,2-oxaphosphoran-4-yl)methyl ester]",Stability test (1 week): residual rate of 2ccPA,"control 2ccPA crystal, 0 mass % additive, 1 week, initial 2ccPA content as 100 mass %",100%
same,Stability test (2 weeks): residual rate of 2ccPA,"control 2ccPA crystal, 0 mass % additive, 2 weeks, initial 2ccPA content as 100 mass %",94.4%
CCCCCCCCCCCCCCCC(=O)OCC1COP(=O)(O)C1 (stereo not shown) [Example 2ccPA-P],Effect on purity of 2ccPA on storage (in words),0.15 mass % 2ccPA-P added to 2ccPA,the purity was reduced
